{
  "source": "patent US6605639B1",
  "about": "“Ligands of nuclear receptor” (Nuclear Receptor Research, Ltd., priority 1998, dated 2003)",
  "key": {"human RXRα": {"target": "T1, human RXRα (Homo sapiens, UniProt P19793)", "T1 construct": "expressed in transfected cells; host or cells: COS-1 cells", "T1 sequence (P19793 1-462)": "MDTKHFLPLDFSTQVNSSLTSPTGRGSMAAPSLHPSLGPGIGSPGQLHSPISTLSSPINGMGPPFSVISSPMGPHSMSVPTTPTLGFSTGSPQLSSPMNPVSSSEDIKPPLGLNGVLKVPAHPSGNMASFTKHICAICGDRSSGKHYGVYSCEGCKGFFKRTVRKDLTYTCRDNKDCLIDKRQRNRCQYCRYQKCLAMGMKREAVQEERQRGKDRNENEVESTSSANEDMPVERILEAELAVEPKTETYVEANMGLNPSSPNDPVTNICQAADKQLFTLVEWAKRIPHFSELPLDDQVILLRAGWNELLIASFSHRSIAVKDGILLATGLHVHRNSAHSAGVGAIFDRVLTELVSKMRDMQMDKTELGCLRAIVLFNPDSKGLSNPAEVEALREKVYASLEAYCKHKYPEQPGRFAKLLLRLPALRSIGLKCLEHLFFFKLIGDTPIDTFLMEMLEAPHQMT", "experiment": "RXR reporter gene (luciferase) transfer assay in COS-1 cells", "assay_type": "cell-based", "settings": "for degree of increase in the luciferase activity, RXR vector: control lot = 1", "procedure": "A plasmid containing a reporter gene regulated in expression by RXR response element and an RXRα expression plasmid were transferred into COS-1 cells. Then these cells were treated with the compounds of the present invention such as ascochlorin.\nPlasmids were transferred into COS-1 cells. Gene transfer was carried out in a conventional manner with the use of Lipofect AMINE reagent (Life Technologies). 1×10^5 cells were dispersed in 2 ml of Dulbecco's modified Eagle medium (DMEM) containing 10% of fetal calf serum and poured into a 35 mm Petri dish. After culturing in a CO2 incubator for 17 hours, the medium was removed and the cells adhering to the Petri dish were washed with phosphate-buffered saline (PBS). Then gene transfer was carried out by using Lipofect AMINE reagent. Namely, 500 ml of a minimum serum medium OptiMEM (Life Technologies) containing […] of a plasmid containing a luciferase gene under the regulation in expression by RXR response element (PRXRL: RXRE-SV40 luciferase; a reporter gene plasmid wherein RXRE has been ligated to SV40 promoter and luciferase cDNA, under the regulation in expression thereby, has been located downstream thereof); […] of an RXRα expression plasmid (pRXRα; a plasmid wherein human RXRα CDNA has been ligated to the downstream of a cytomegalovirus promoter to express human RXRα in mammalian cells); and 2 mg of a β-galactosidase gene plasmid to assess the gene transfer ratio (pCH110; Pharmacia) were pre-mixed with 500 ml of OptiMEM containing 50 ml of Lipofec AMINE, and the resultant mixture was maintained at room temperature for 15 minutes. 100 ml of this liquid mixture was mixed with 400 ml of OptiMEM, and the medium mixture was divided to the Petri dish. After maintaining in a CO2 incubator at 37° C. for 3 hours, the gene transfer medium was sucked off from the Petri dish and DMEM medium containing a test substance and 10% of serum (activated carbon-treated) was added thereto followed by culturing at 37° C. for 20 hours. […] Further, dimethyl sulfoxide (final concentration: 0.1%) was added as the solvent for the test substance.\n(§1) After sucking off the medium from the Petri dish, […] of a cultured cell lysing solution (25 mM Tris phosphate buffer (pH 7.8), 2 mM 1,2-diaminocyclohexane-N, N,N′,N′-tetraacetate, 10% glycerol, 1% Triton X-100) was added and the cells were peeled off with a rubber policeman and collected. After completely disrupting the cells by freezing and melting, the cells were centrifuged at 4° C. (15,000 rpm, 2 min) and the supernatant thus obtained was employed as a sample for measurement. To 20 ml of the supernatant, 100 ml of a luciferase substrate solution (2.14 mg of Co-A, 100 ml of 470 mM D-Luciferin, 200 ml of 530 mM ATP, 2 ml of DTT-Tricine buffer (pH 7.8)) was added and the fluorescence intensity was measured with a luminometer (ATTO Luminosensor AB-2000). To measure the β-galactosidase for determining the gene transfer efficiency, using a Luminescent β-galactosidase detection kit II (Clontech), fluorescence intensity was measured by a luminometer."}, "RAR": {"target": "T2, RAR (Homo sapiens, UniProt P10276)", "T2 construct": "expressed in transfected cells; host or cells: COS-1 cells", "T2 sequence (P10276 1-462)": "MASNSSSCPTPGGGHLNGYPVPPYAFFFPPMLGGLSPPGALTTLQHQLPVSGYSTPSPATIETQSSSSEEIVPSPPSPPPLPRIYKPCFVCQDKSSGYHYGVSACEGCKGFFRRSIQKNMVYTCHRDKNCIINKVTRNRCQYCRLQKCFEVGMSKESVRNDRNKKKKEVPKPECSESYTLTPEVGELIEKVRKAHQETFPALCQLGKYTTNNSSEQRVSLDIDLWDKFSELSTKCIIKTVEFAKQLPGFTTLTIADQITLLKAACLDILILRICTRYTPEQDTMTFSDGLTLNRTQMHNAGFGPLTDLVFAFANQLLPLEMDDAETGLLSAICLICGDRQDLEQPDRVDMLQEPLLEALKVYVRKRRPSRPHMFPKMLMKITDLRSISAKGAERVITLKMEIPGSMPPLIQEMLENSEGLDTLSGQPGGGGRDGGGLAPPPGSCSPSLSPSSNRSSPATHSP", "experiment": "RAR reporter gene (luciferase) transfer assay in COS-1 cells", "assay_type": "cell-based", "settings": "control lot = 1", "source_text": "Each value means the degree of increase in the luciferase activity, which is expressed by referring the luciferase activity in the control lot as to 1, caused by the addition of the corresponding compound.\nAs a substitute for a plasmid containing a luciferase gene under the regulation in expression by RXR response element (pRXRL:RXRE-SV40 luciferase), and the RXRα expression plasmid (pRXRα); a plasmid containing a luciferase gene under the regulation in expression by RXR response element (pRARL:RASE-SV40 luciferase), and a […] (pRARα) were transferred into COS-1 cells. Transfectants with these plasmids and the compound of the present invention (concentration: 10^−4 to 10^−7 M) were added to the culture.\nas §1"}},
  "data": [
    {"molecule": "CC(/C=C/C1(C)C(C)C=CC(=O)C1C)=C\\Cc1c(O)c(Cl)c(C)c(C=O)c1O", "note": "(stereo not drawn) [Compound-26]", "values": [
      {"measurement": "fold increase in luciferase reporter activity (control = 1)", "setting": "human RXRα; 4 × 10^−7 M", "value": 1.91},
      {"measurement": "degree of increase in the luciferase activity, RXR vector", "setting": "human RXRα; 4 × 10^−7 M", "value": 63},
      {"measurement": "degree of increase in the luciferase activity, RAR vector", "setting": "RAR; 4 × 10^−7 M", "value": 33}
    ]},
    {"molecule": "CC(/C=C/[C@@]1(C)[C@H](C)CCC(=O)[C@@H]1C)=C\\Cc1c(O)c(C=O)c(C)c(Cl)c1OCC(=O)O", "note": "[Compound-14, 4-O-carboxymethylASC]", "values": [
      {"measurement": "fold increase in luciferase reporter activity (control = 1)", "setting": "human RXRα; 10^−5 M", "value": 1.23},
      {"measurement": "degree of increase in the luciferase activity, RXR vector", "setting": "human RXRα; 10^−5 M", "value": 47},
      {"measurement": "degree of increase in the luciferase activity, RAR vector", "setting": "RAR; 10^−5 M", "value": 38}
    ]},
    {"molecule": "3-[5-[l(R),2(S),6(S)-trimethyl-3-oxocylohexyl]-3-methyl-2,4-pentadienyl]-2,4-dihydroxy-5-chloro-6-methylbenzaldehyde [Compound-1]", "values": [
      {"measurement": "fold increase in luciferase reporter activity (control = 1)", "setting": "human RXRα; 10^−6 M", "value": 2.03},
      {"measurement": "degree of increase in the luciferase activity, RXR vector", "setting": "human RXRα; 10^−6 M", "value": 61},
      {"measurement": "degree of increase in the luciferase activity, RAR vector", "setting": "RAR; 10^−6 M", "value": 30}
    ]},
    {"molecule": "COc1c(Cl)c(C)c(C=O)c(O)c1C/C=C(C)/C=C/[C@@]1(C)[C@H](C)CCC(=O)[C@@H]1C", "note": "[Compound-6, 4-O-methylASC]", "values": [
      {"measurement": "fold increase in luciferase reporter activity (control = 1)", "setting": "human RXRα; 5 × 10^−6 M", "value": 1.57},
      {"measurement": "degree of increase in the luciferase activity, RXR vector", "setting": "human RXRα; 5 × 10^−6 M", "value": 55},
      {"measurement": "degree of increase in the luciferase activity, RAR vector", "setting": "RAR; 5 × 10^−6 M", "value": 35}
    ]}
  ]
}
